# Molecular target: GCN2 (Homo sapiens (Human), UniProt Q9P2K8)
# Experiment: TR-FRET biochemical assay for inhibition of GCN2
# Conditions: not given
# GCN2, sequence (Q9P2K8 whole entry): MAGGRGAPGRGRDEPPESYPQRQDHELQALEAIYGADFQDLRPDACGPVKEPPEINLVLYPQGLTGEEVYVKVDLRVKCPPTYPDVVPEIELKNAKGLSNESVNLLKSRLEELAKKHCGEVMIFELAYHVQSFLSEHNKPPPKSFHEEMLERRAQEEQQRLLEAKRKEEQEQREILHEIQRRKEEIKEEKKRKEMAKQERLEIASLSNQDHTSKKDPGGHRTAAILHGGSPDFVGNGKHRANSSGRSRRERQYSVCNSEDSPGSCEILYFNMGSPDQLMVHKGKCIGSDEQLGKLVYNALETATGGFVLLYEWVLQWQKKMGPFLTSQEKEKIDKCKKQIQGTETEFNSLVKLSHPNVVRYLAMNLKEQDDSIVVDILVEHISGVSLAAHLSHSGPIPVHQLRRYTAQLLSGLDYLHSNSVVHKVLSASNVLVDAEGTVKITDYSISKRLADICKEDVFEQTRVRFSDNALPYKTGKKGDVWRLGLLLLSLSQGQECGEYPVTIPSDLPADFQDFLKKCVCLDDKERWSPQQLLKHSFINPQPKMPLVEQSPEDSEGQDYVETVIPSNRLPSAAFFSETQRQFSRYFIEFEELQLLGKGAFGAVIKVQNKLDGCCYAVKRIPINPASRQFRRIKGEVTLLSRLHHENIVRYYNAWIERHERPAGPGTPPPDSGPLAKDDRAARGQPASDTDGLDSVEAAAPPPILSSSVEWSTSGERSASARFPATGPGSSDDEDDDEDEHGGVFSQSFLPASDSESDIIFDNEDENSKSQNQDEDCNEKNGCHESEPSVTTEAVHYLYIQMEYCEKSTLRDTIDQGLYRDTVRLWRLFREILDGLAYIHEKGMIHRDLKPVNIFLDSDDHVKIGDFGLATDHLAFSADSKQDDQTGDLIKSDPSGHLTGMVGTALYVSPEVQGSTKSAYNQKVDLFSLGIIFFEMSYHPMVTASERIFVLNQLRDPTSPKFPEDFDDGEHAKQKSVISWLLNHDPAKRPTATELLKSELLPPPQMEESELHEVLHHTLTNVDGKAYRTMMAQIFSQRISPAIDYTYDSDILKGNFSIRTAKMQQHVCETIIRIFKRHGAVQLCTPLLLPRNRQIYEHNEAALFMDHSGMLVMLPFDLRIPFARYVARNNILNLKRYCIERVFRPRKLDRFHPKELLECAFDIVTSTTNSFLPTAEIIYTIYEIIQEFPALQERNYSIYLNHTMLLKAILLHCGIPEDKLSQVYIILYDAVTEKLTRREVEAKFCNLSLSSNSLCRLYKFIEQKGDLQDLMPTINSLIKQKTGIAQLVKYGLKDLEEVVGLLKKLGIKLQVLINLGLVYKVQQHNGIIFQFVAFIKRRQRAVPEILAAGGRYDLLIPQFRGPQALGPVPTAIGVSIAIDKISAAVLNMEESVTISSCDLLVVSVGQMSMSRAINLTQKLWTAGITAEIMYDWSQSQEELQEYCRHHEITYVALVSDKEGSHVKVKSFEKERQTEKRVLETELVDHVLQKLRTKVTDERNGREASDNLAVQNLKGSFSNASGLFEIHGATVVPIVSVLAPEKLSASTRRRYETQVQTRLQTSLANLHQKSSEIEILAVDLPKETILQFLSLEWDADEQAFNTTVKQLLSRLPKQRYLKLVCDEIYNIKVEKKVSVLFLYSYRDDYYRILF
row,SMILES,IC50
1,"CNC(=O)c1ncn2cc(-c3c(F)ccc(NS(=O)(=O)c4cc(Cl)cnc4OC)c3C#N)ncc12 [Compound 117, 6-[3-(5-chloro-2-methoxypyridine-3-sulfonamido)-2-cyano-6-fluorophenyl]-N-methylimidazo[1,5-a]pyrazine-1-carboxamide]",50 to 500 nM
2,"CNC(=O)c1ncn2cc(-c3c(F)ccc(NS(=O)(=O)c4cc(Cl)cnc4OC)c3F)sc12 [Compound 120, 2-[3-(5-chloro-2-methoxypyridine-3-sulfonamido)-2,6-difluorophenyl]-N-methylimidazo[4,3-b][1,3]thiazole-7-carboxamide]",500 to 1000 nM
3,"CNC(=O)c1ncn2cc(-c3c(F)ccc(NS(=O)(=O)c4cc(Cl)cnc4OC)c3C)ccc12 [Compound 122, 6-[3-(5-chloro-2-methoxypyridine-3-sulfonamido)-6-fluoro-2-methylphenyl]-N-methylimidazo[1,5-a]pyridine-1-carboxamide]",50 to 500 nM
4,"COc1ncc(F)cc1S(=O)(=O)Nc1ccc(F)c(-c2cn3cnc(-c4nnc(C)[nH]4)c3cn2)c1F [Compound 127, N-[2,4-difluoro-3-[1-(5-methyl-4H-1,2,4-triazol-3-yl)imidazo[1,5-a]pyrazin-6-yl]phenyl]-5-fluoro-2-methoxypyridine-3-sulfonamide]",50 to 500 nM
5,"COc1ncc(C#N)cc1S(=O)(=O)Nc1ccc(F)c(-c2cn3cnc(-c4nnc(C)[nH]4)c3cn2)c1F [Compound 128, 5-cyano-N-[2,4-difluoro-3-[1-(5-methyl-4H-1,2,4-triazol-3-yl)imidazo[1,5-a]pyrazin-6-yl]phenyl]-2-methoxypyridine-3-sulfonamide]",50 to 500 nM

# Same assay, conditions: GCN2 2 nM, 100 nM GFP-eIF2a, 150 μM ATP, TR-FRET
row,SMILES,IC50
1,"Cc1ncc(Cl)cc1S(=O)(=O)Nc1ccc(F)c(-c2cn3cnc(-c4nc5ccccc5[nH]4)c3cn2)c1F [Compound 113, N-[3-[1-(1H-1,3-benzodiazol-2-yl)imidazo[1,5-a]pyrazin-6-yl]-2,4-difluorophenyl]-5-chloro-2-methylpyridine-3-sulfonamide]",< 50 nM
2,"Cc1ncc(F)cc1S(=O)(=O)Nc1ccc(F)c(-c2cn3cnc(-c4nc5ccccc5[nH]4)c3cn2)c1F [Compound 114, N-[3-[1-(1H-1,3-benzodiazol-2-yl)imidazo[1,5-a]pyrazin-6-yl]-2,4-difluorophenyl]-5-fluoro-2-methylpyridine-3-sulfonamide]",< 50 nM
3,"COc1ncc(F)cc1S(=O)(=O)Nc1ccc(F)c(-c2ccc3c(-c4nc(Cl)c[nH]4)ncn3c2F)c1F [Compound 115, N-[3-[1-(4-chloro-1H-imidazol-2-yl)-5-fluoroimidazo[1,5-a]pyridin-6-yl]-2,4-difluorophenyl]-5-fluoro-2-methoxypyridine-3-sulfonamide]",< 50 nM
4,"COc1ncc(Cl)cc1S(=O)(=O)Nc1ccc(F)c(-c2ccc3c(-c4nc(Cl)c[nH]4)ncn3c2F)c1F [Compound 116, 5-chloro-N-[3-[1-(4-chloro-1H-imidazol-2-yl)-5-fluoroimidazo[1,5-a]pyridin-6-yl]-2,4-difluorophenyl]-2-methoxypyridine-3-sulfonamide]",< 50 nM
5,"COc1ncc(F)cc1S(=O)(=O)Nc1ccc(F)c(-c2ccc3c(-c4ccno4)ncn3c2)c1F [Compound 118, N-[2,4-difluoro-3-[1-(1,2-oxazol-5-yl)imidazo[1,5-a]pyridin-6-yl]phenyl]-5-fluoro-2-methoxypyridine-3-sulfonamide]",< 50 nM
6,"COc1ncc(C#N)cc1S(=O)(=O)Nc1ccc(F)c(-c2ccc3c(-c4ccno4)ncn3c2)c1F [Compound 119, 5-cyano-N-[2,4-difluoro-3-[1-(1,2-oxazol-5-yl)imidazo[1,5-a]pyridin-6-yl]phenyl]-2-methoxypyridine-3-sulfonamide]",< 50 nM
7,"Cc1ncc(Cl)cc1S(=O)(=O)Nc1ccc(F)c(-c2ccc3c(-c4ccno4)ncn3c2)c1F [Compound 121, 5-chloro-N-[2,4-difluoro-3-[1-(1,2-oxazol-5-yl)imidazo[1,5-a]pyridin-6-yl]phenyl]-2-methylpyridine-3-sulfonamide]",< 50 nM
8,"COc1ncc(C#N)cc1S(=O)(=O)Nc1ccc(F)c(-c2ccc3c(-c4nc5c([nH]4)CCCC5)ncn3c2)c1F [Compound 123, 5-cyano-N-[2,4-difluoro-3-[1-(4,5,6,7-tetrahydro-1H-1,3-benzodiazol-2-yl)imidazo[1,5-a]pyridin-6-yl]phenyl]-2-methoxypyridine-3-sulfonamide]",< 50 nM
9,"COc1ncc(Cl)cc1S(=O)(=O)Nc1ccc(F)c(-c2cn3cnc(-c4nnc(C)[nH]4)c3cn2)c1F [Compound 124, 5-chloro-N-[2,4-difluoro-3-[1-(5-methyl-4H-1,2,4-triazol-3-yl)imidazo[1,5-a]pyrazin-6-yl]phenyl]-2-methoxypyridine-3-sulfonamide]",< 50 nM
10,"Cc1ncc(F)cc1S(=O)(=O)Nc1ccc(F)c(-c2ccc3c(-c4ccno4)ncn3c2)c1F [Compound 125, N-[2,4-difluoro-3-[1-(1,2-oxazol-5-yl)imidazo[1,5-a]pyridin-6-yl]phenyl]-5-fluoro-2-methylpyridine-3-sulfonamide]",< 50 nM
11,"COc1ncc(C#N)cc1S(=O)(=O)Nc1ccc(F)c(-c2ccc3c(-c4nc(C)c(C)[nH]4)ncn3c2)c1F [Compound 126, 5-cyano-N-[3-[1-(4,5-dimethyl-1H-imidazol-2-yl)imidazo[1,5-a]pyridin-6-yl]-2,4-difluorophenyl]-2-methoxypyridine-3-sulfonamide]",< 50 nM
12,"Cc1nnc(-c2ncn3cc(-c4c(F)ccc(NS(=O)(=O)c5cc(F)cnc5C)c4F)ncc23)[nH]1 [Compound 129, N-[2,4-difluoro-3-[1-(5-methyl-4H-1,2,4-triazol-3-yl)imidazo[1,5-a]pyrazin-6-yl]phenyl]-5-fluoro-2-methylpyridine-3-sulfonamide]",< 50 nM
13,"COc1ncc(Cl)cc1S(=O)(=O)Nc1ccc(F)c([C@@H]2CCc3c(-c4nnc(C)[nH]4)ncn3C2)c1F [Compound 130-1, 5-chloro-N-[2,4-difluoro-3-[(6S)-1-(5-methyl-4H-1,2,4-triazol-3-yl)-5H,6H,7H,8H-imidazo[1,5-a]pyridin-6-yl]phenyl]-2-methoxypyridine-3-sulfonamide]",< 50 nM
14,"COc1ncc(Cl)cc1S(=O)(=O)Nc1ccc(F)c([C@H]2CCc3c(-c4nnc(C)[nH]4)ncn3C2)c1F [Compound 130-2, 5-chloro-N-[2,4-difluoro-3-[(6R)-1-(5-methyl-4H-1,2,4-triazol-3-yl)-5H,6H,7H,8H-imidazo[1,5-a]pyridin-6-yl]phenyl]-2-methoxypyridine-3-sulfonamide]",< 50 nM
15,"COc1ncc(F)cc1S(=O)(=O)Nc1ccc(F)c([C@@H]2CCc3c(-c4nnc(C)[nH]4)ncn3C2)c1F [Compound 131-1, N-[2,4-difluoro-3-[(6S)-1-(5-methyl-4H-1,2,4-triazol-3-yl)-5H,6H,7H,8H-imidazo[1,5-a]pyridin-6-yl]phenyl]-5-fluoro-2-methoxypyridine-3-sulfonamide]",< 50 nM
16,"COc1ncc(F)cc1S(=O)(=O)Nc1ccc(F)c([C@H]2CCc3c(-c4nnc(C)[nH]4)ncn3C2)c1F [Compound 131-2, N-[2,4-difluoro-3-[(6R)-1-(5-methyl-4H-1,2,4-triazol-3-yl)-5H,6H,7H,8H-imidazo[1,5-a]pyridin-6-yl]phenyl]-5-fluoro-2-methoxypyridine-3-sulfonamide]",< 50 nM
